# Test system: Plasmopara viticola
# Test: Activity against downy mildew of grapes caused by Plasmopara viticola (protective, potted vines)
# Type: in vivo
# Conditions: individual active compound
# Method: The active compounds, separately or together, were formulated as 10% emulsion in a mixture of 63% by weight of cyclohexanone and 27% by weight of emulsifier, and diluted with water to the desired concentration.
# Evaluation was carried out by determining the infected leaf areas in percent. These percentages were converted into efficacies. The efficacy (w) was calculated as follows using Abbot's formula: w=(1−α)·100/β • α corresponds to the fungal infection of the treated plants in % and • β corresponds to the fungal infection of the untreated (control) plants in %
# An efficacy of 0 means that the infection level of the treated plants corresponds to that of the untreated control plants; an efficacy of 100 means that the treated plants were not infected.
# The expected efficacies of the mixtures of the active compounds were determined using Colby's formula [R. S. Colby, Weeds 15, 20-22 (1967)] and compared with the observed efficacies. Colby Formula: E=x+y−x·y/100 • E expected efficacy, expressed in % of the untreated control, when using the mixture of the active compounds A and B at the concentrations a and b • x efficacy, expressed in % of the untreated control, when using the active compound A at a concentration a • y efficacy, expressed in % of the untreated control, when using the active compound B at a concentration b
# Leaves of potted vines of the cultivar “Müller-Thurgau” were sprayed to run off point with an aqueous preparation of active compound which had been prepared from a stock solution comprising 10% of active compound, 85% of cyclohexanone and 5% of emulsifier. The next day, the undersides of the leaves were inoculated with an aqueous zoospore suspension of Plasmopara viticola. The vines were then initially placed at 24° C. in a chamber saturated with water vapor for 48 hours and then for 5 days in a greenhouse at 20-30° C. After this period of time, the plants were once more placed into a moist chamber for 16 hours to promote sporangiophore eruption. The extent of the development of the disease on the undersides of the leaves was then determined visually.
compound,measurement,setting,value
"Cc1ccc(-c2c(Cl)nc(C#N)n2S(=O)(=O)N(C)C)cc1 [IIa, cyazofamid]",Efficacy in % of the untreated control,"0.25 ppm in the spray liquor, vines Müller-Thurgau",14%
same,Efficacy in % of the untreated control,1 ppm in the spray liquor,57%
same,Efficacy in % of the untreated control,4 ppm in the spray liquor,71%

# Source: patent US7368414B2, “Fungicidal mixtures” (BASF Aktiengesellschaft, priority 2000, dated 2008)
